Data published in paper PMC7702303, “Biochemical and transcript level differences between the three human phosphofructokinases show optimisation of each isoform for specific metabolic niches” (Biochemical Journal, 2020).
Several values for one entry are separate records, joined by “and”; a condition that tells them apart may be missing. Equal entries are not always repeated. Where two headings read alike, the source gives them in different places. Blank lines part the entries; values can stand above or below the compound they belong to.

What was measured:
[1] = molecular target: T1, recombinant human PFK-M (Homo sapiens, UniProt P08237); experiment: ALDO-TIM-G3PDH enzyme-linked kinetic assay, PFK-M; type: biochemical
T1 construct: made in house; host or cells: PFK-deficient Saccharomyces cerevisiae
T1 sequence (P08237 1-780): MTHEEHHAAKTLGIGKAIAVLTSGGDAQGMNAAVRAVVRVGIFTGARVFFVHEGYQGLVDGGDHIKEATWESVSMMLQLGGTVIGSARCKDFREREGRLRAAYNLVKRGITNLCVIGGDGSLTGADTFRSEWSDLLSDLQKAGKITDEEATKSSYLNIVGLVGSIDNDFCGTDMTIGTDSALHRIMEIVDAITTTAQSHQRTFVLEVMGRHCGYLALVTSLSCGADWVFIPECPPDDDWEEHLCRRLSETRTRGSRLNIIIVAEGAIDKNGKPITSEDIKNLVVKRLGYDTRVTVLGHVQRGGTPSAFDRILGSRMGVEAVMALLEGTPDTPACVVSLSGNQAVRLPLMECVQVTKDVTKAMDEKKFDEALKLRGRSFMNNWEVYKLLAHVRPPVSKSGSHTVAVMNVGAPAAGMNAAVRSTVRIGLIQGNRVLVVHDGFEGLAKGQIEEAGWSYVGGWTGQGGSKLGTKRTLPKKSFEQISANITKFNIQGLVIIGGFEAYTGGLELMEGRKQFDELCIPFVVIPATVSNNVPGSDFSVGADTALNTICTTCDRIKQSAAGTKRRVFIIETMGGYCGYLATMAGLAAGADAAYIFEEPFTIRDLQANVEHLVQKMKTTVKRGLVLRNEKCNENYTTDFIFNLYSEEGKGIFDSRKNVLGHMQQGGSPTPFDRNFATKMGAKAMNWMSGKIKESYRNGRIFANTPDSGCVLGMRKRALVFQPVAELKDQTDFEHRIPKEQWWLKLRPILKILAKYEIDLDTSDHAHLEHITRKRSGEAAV
Experimental: (§1) Recombinant human PFKs were expressed in PFK-deficient Saccharomyces cerevisiae and purified using the methods described previously, adapting earlier materials and protocols. Production of PFK intended for use in ATP titration experiments used 1 mM F6P as a tetramer stabilising agent in protein purification and storage buffers. Production of PFK intended for use in F6P titration experiments used 1 mM ATP as a tetramer stabilising agent in protein purification and storage buffers. Experimental details on the purification and characterisation procedures including figures showing SDS–PAGE gels of the highly pure PFKs used in the kinetic experiments described in this work have been recently published.
(§2) Assay buffer consisted of 50 mM TEA, 100 mM KCl, 10 mM MgCl2, 1 mM Tris(2-carboxyethyl)phosphine hydrochloride (TCEP), 10% glycerol, pH 7.4. Assay mix consisted of 5 units/ml glycerol-3-phosphate dehydrogenase (G3PDH, Sigma–Aldrich G6880), 2.5 units/ml aldolase (Sigma–Aldrich A2714), 25 units/ml triosephosphate isomerase (TIM, Sigma–Aldrich T6258), and 1.25 mM NADH. ATP and F6P were obtained from Sigma–Aldrich (A2383 and F3627, respectively). For ATP titrations, 38 µl of buffer or ligand were added to a clear non-binding 96-well plate. 40 µl of assay mix containing 10 mM F6P (final concentration 4 mM) was added and the plate was incubated at 25°C for 5 min. An amount of 2 µl of PFK isoforms were added to each well from stock concentrations of 150 µg/ml and the reaction was immediately started with 20 µl of ATP at varying concentrations. For F6P titrations, 30 µl of buffer or ligand was added to a clear non-binding 96-well plate. An amount of 40 µl of assay mix containing 1.25 mM ATP (final concentration 0.5 mM) was added and the plate was incubated at 25°C for 5 min. An amount of 5 µl of PFK isoforms were added to each well from stock concentrations of 200 µg/ml and the reaction was immediately started with 20 µl F6P at varying concentrations. All ligands and substrates (including ATP) were used at pH 7.4. All metabolites were obtained from Sigma–Aldrich unless otherwise stated. […] A SpectraMax M5 Multi-Mode Microplate Reader was used to measure A340nm at 13 s intervals for 10 min. All experiments were performed in triplicate unless otherwise stated.
(§3) Time-dependent absorbance change was converted into rate of NADH oxidation (µM s^−1) or specific activity (µmol min^−1 mg protein^−1) using the Beer-Lambert law (molar extinction coefficient of NADH 6.22 mM^−1 cm^−1). The initial rate of reaction was used to avoid accumulation of ADP, which activates PFK, interfering with the determination of kinetic properties. Non-linear regression analysis was performed on substrate titration data using GraphPad Prism 7, with curves fitted using allosteric sigmoidal models, enabling determination of steady-state kinetic values.

[2] = molecular target: T2, recombinant human PFK-P (Homo sapiens, UniProt Q01813); experiment: ALDO-TIM-G3PDH enzyme-linked kinetic assay, PFK-P; type: biochemical
T2 construct: made in house; host or cells: PFK-deficient Saccharomyces cerevisiae
T2 sequence (Q01813 1-784): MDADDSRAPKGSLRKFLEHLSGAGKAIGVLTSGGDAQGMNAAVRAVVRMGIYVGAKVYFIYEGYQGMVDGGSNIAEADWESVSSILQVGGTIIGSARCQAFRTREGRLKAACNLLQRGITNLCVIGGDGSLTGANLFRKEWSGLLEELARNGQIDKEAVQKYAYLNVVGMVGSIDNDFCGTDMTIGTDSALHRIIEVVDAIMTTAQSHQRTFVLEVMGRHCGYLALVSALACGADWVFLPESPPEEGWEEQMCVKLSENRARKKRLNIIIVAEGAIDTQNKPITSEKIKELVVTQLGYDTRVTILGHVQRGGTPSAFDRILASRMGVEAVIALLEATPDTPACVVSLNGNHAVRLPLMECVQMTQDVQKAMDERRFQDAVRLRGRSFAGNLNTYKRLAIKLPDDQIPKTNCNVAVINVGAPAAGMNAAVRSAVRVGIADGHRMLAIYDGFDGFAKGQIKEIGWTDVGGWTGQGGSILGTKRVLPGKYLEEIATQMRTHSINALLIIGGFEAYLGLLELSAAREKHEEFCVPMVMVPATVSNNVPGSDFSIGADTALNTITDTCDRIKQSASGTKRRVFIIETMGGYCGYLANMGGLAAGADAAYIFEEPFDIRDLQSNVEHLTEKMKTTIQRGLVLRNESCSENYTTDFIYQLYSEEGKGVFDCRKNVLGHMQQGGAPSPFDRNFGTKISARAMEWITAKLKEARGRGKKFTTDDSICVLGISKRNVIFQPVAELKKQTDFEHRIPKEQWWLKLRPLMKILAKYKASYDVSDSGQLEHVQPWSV
Experimental: as §1, §2, §3

[3] = test system: PFKP; details: cited from earlier work
[4] = modulator 600 µM, ATP 0.5mM, N=3, mean (SD)
[5] = modulator 600 µM, F6P 4mM, N=3, mean (SD)
[6] = modulator 1200 µM, ATP 0.5mM, N=3, mean (SD)
[7] = modulator 1200 µM, F6P 4mM, N=3, mean (SD)
[8] = 1 mM ATP compared with 0.5 mM ATP
[9] = ATP titration, F6P 4 mM, n = 6, mean (SD)
[10] = Hill value, ATP titration, F6P 4 mM, n = 6, mean (SD)
[11] = control without modulator, run alongside modulator experiments, F6P 4mM, N=3, mean (SD)
[12] = dose-response, read-out: IC50^citrate
[13] = F6P titration, ATP 0.5 mM, n = 6, mean (SD)
[14] = GTP titration, F6P 4 mM, n = 3, mean (SD)
[15] = Hill value, GTP titration, F6P 4 mM, n = 3, mean (SD)

SMILES: Nc1ncnc2c1ncn2[C@@H]1O[C@H](COP(=O)(O)OP(=O)(O)O)[C@@H](O)[C@H]1O [ADP]
effect on PFK activity, in words [1]: inhibiting
change in kcat^ATP/K0.5^ATP compared with control PFK without modulator ([1]; modulator 600 µM): −52%
change in kcat^F6P/K0.5^F6P compared with control PFK without modulator ([1]; modulator 600 µM): −13%
effect on PFK activity, in words [2]: activating
change in kcat^ATP/K0.5^ATP compared with control PFK without modulator ([2]; modulator 600 µM): +39%
change in kcat^F6P/K0.5^F6P compared with control PFK without modulator ([2]; modulator 600 µM): +129%
K0.5F6P + modulator [2, 4]: 821.7 (53.4) M
VmaxF6P + modulator [2, 4]: 2.51 (0.11) moles/min/mg
K0.5ATP + modulator [2, 5]: 290.5 (36.0) M
VmaxATP + modulator [2, 5]: 37.99 (1.74) moles/min/mg

SMILES: Nc1ncnc2c1ncn2[C@@H]1O[C@H](COP(=O)(O)O)[C@@H](O)[C@H]1O [AMP]
decrease in K0.5^F6P by AMP ([1]; F6P titration): near two-fold decrease
change in kcat^ATP/K0.5^ATP compared with control PFK without modulator ([1]; modulator 1200 µM): −12%
change in kcat^F6P/K0.5^F6P compared with control PFK without modulator ([1]; modulator 1200 µM): −25%
IC50 or AC50 (activator) ([3]; ref Foe and Kemp, 1985): 75 µM
IC50 or AC50 (activator) ([3]; ref Sanchez-Martinez et al., 2000): 8 µM
decrease in K0.5^F6P by AMP ([2]; F6P titration): two-fold decrease
change in kcat^ATP/K0.5^ATP compared with control PFK without modulator ([2]; modulator 1200 µM): +220%
change in kcat^F6P/K0.5^F6P compared with control PFK without modulator ([2]; modulator 1200 µM): +162%
K0.5F6P + modulator [2, 6]: 607.0 (31.0) M
VmaxF6P + modulator [2, 6]: 2.13 (0.06) moles/min/mg
K0.5ATP + modulator [2, 7]: 94.4 (10.8) M
VmaxATP + modulator [2, 7]: 28.38 (1.07) moles/min/mg

SMILES: Nc1ncnc2c1ncn2[C@@H]1O[C@H](COP(=O)(O)OP(=O)(O)OP(=O)(O)O)[C@@H](O)[C@H]1O [ATP]
decrease in specificity constant (ATP inhibition) [1, 8]: 21%
increase in specific activity ([1]; ATP concentration from 0.25 mM to 0.5 mM): 23%
decrease in specific activity ([1]; ATP concentration from 0.5 mM to 1 mM): 21%
K0.5^ATP [1, 9]: 151 µM and 152 µM and 151.8 (10.0) µM
Vmax^ATP [1, 9]: 38.4 (0.9) µmoles/min.mg
kcat^ATP [1, 9]: 56.0 (1.2) s^−1
kcat^ATP/K0.5^ATP [1, 9]: 0.37 s^−1 µM^−1 and 0.37 (0.12) s^−1 µM^−1
h (ATP) [1, 10]: 1.03 (0.05)
decrease in specificity constant (ATP inhibition) [2, 8]: 50%
K0.5^ATP [2, 9]: 275 µM and 276 µM and 275.6 (84.4) µM
Vmax^ATP [2, 9]: 27.2 (2.5) µmoles/min.mg
kcat^ATP [2, 9]: 39.7 (1.7) s^−1
kcat^ATP/K0.5^ATP [2, 9]: 0.14 s^−1 µM^−1 and 0.14 (0.02) s^−1 µM^−1
h (ATP) [2, 10]: 0.76 (0.09)
K0.5ATP [2, 11]: 326.9 (99.7) M and 217.9 (74.5) M
VmaxATP [2, 11]: 30.74 (2.92) moles/min/mg and 23.65 (2.40) moles/min/mg

SMILES: Nc1nc2c(ncn2[C@@H]2O[C@H](COP(=O)(O)OP(=O)(O)OP(=O)(O)O)[C@@H](O)[C@H]2O)c(=O)[nH]1 [GTP]
K0.5^GTP [1, 14]: 97 µM and 96.7 (8.0) µM
Vmax^GTP [1, 14]: 17.82 (0.44) µmoles/min.mg
kcat^GTP [1, 14]: 26.0 (0.6) s^−1
kcat^GTP/K0.5^GTP [1, 14]: 0.27 s^−1 µM^−1 and 0.27 (0.08) s^−1 µM^−1
h (GTP) [1, 15]: 1.19 (0.12)
K0.5^GTP [2, 14]: 131 µM and 131 (20.9) µM
Vmax^GTP [2, 14]: 12.30 (0.62) µmoles/min.mg
kcat^GTP [2, 14]: 17.9 (0.9) s^−1
kcat^GTP/K0.5^GTP [2, 14]: 0.14 s^−1 µM^−1 and 0.14 (0.04) s^−1 µM^−1
h (GTP) [2, 15]: 1.12 (0.18)

More lines, main results first:

IC50 [1, 12]: 982 ± 109 µM
change in kcat^ATP/K0.5^ATP compared with control PFK without modulator ([1]; modulator 600 µM): +5%
change in kcat^F6P/K0.5^F6P compared with control PFK without modulator ([1]; modulator 600 µM): −36%
IC50 [2, 12]: 177 ± 132 µM
change in kcat^ATP/K0.5^ATP compared with control PFK without modulator ([2]; modulator 600 µM): +136%
change in kcat^F6P/K0.5^F6P compared with control PFK without modulator ([2]; modulator 600 µM): −78%
K0.5F6P + modulator [2, 4]: 1494 (627) M
VmaxF6P + modulator [2, 4]: 0.43 (0.12) moles/min/mg
K0.5ATP + modulator [2, 5]: 46.0 (14.4) M
VmaxATP + modulator [2, 5]: 10.18 (0.89) moles/min/mg
SMILES: O=C(O)CC(O)(CC(=O)O)C(=O)O [Citrate]
IC50 ([3]; ref Foe and Kemp, 1985, read-out: IC50 or AC50 (inhibitor)): 750 µM
IC50 ([3]; ref Sanchez-Martinez et al., 2000, read-out: IC50 or AC50 (inhibitor)): 400 µM
IC50 ([3]; ref Vora 1985, read-out: IC50 or AC50 (inhibitor)): 80 µM

K0.5^F6P [1, 13]: 147 µM and 147.1 (13.6) µM
K0.5^F6P [2, 13]: 1333 µM and 1333 (312) µM
K0.5F6P ([2]; control without modulator, run alongside modulator experiments, ATP 0.5mM, N=3, mean (SD)): 1238 (179) M and 1607 (90) M
SMILES: O=C(CO)[C@@H](O)[C@H](O)[C@H](O)COP(=O)(O)O [F6P, fructose 6-phosphate]
